“Also recorded” adds a separate entry of the source.
Columns and labels:
viruses = settings: U.S. Pat. No. 4,874,794; cited from earlier work
Friend Virus [1] = assay: Replication of Friend Virus in vitro in primary embryo fibroblast cultures; type: cell-based, murine
LP-BM5 Virus = assay: Antiviral activity against LP-BM5 virus; type: cell-based; settings: Table 6, murine viruses
[2] = test system: acyclovir-resistant HSV-2; assay: Plaque inhibition, acyclovir-resistant HSV-2 in Vero cells; type: cell-based; settings: FIG. 7, Panel B
poliovirus = type: cell-based; settings: nonenveloped virus
murine retroviruses = assay: Replication of murine retroviruses in vitro and in vivo
Text: n-Docosanol has anti-retroviral activity both in vitro and in vivo. […] Notwithstanding the implications for treatment of AIDS, availability of a treatment regimen for diseases caused by retroviruses like feline leukemia virus, bovine leukemia virus, as well HTLV-1 and -2 would have substantial benefits in humanitarian terms.

Friend virus [3] = assay: Friend virus-induced leukemia and viremia in mice; type: in vivo, BALB/c mice; settings: intravenous
[4] = test system: Respiratory Syncytial Virus; assay: Antiviral activity against respiratory syncytial virus; type: cell-based; settings: Table 6, human viruses
Vero or MDBK cells = assay: Uptake and metabolism in Vero versus MDBK cells; type: in vitro ADME, bovine (MDBK)
Protocol: FIG. 11 depicts data showing that n-[^14 C]-docosanol is metabolized more by Vero cells than by MDBK cells. Vero or MDBK cells were plated as described in the specification. n-[^14 C]-Docosanol was added to 6 mM (0.24 mM Tetronic 908) and the cultures were incubated 72 hours at 37° C./CO2. Cells were extracted and analyzed on TLC with hexane:diethyl ether:acetic acid (20:30:1; v:v:v) as the developing solvent. With this solvent system the polar phosphatides remain at the origin. The position of migration of n-docosanol is indicated. Duplicate plates were treated with an identical suspension lacking the radioactive label, and the numbers of cells in these duplicate plates were determined by counting cells excluding trypan blue with a hemocytometer.
When we compared total cellular uptake and relative metabolism, the results were strikingly clear. First, both the total amounts of n-docosanol uptake and the relative amounts of metabolic conversion were 3-4 times higher in Vero than in MDBK cells. […] Nonetheless, of the counts that are metabolized in two cells lines, the relative amounts in the major classes of phosphatides that are formed, phosphatidylcholine and phosphatidylethanolamine, are not different in the two cell lines.

HIV-1 = HIV-1 replication in PHA/IL-2-stimulated human peripheral blood mononuclear cells (p24 ELISA); type: cell-based
Protocol: Human peripheral blood mononuclear cells were cultured in medium containing 1 μg/ml PHA plus 5 units/ml IL-2 alone or also containing 100 μg/ml PFA, […] F-68 control vehicle contained in the high dose of n-docosanol/Pluronic. After overnight incubation, the cultures were inoculated with HIV-1 at a multiplicity of infection of 1 virion/cell. After 24 hours incubation at 37° C., the cultures were washed and inoculated with fresh medium containing PHA and IL-2, but lacking inhibitor. Replication of HIV-1 was determined 4 days later by quantitation of viral antigens by a p24-specific ELISA for HIV-1.
Our initial studies on HIV were conducted in collaboration with a U.S. National Institutes of Health laboratory and one of several experiments of this type is summarized in FIG. 13. Normal human peripheral blood mononuclear cells were activated with […] PHA plus 5 units/ml of IL-2 in medium alone or in the presence of the n-docosanol, Pluronic F-68 control vehicle, or phosphonoformic acid (PFA). The next day, the cultures were inoculated with HIV-1 and examined 4 days later for evidence of viral replication by detection of the p24 viral antigen. […] The dose response of HIV-1 to n-docosanol indicates an ED 50 of about 6-9 mM.

reovirus = assay: Antiviral activity against reovirus; type: cell-based; settings: nonenveloped virus
[5] = test system: recurrent herpes labialis; assay: Study A: Phase 2 study in recurrent herpes labialis; type: in vivo, human; settings: for time to healing, mean: 10% cream, all treatment episodes
Text: Two clinical efficacy studies have been completed. Study A was a randomized, double-blind, placebo-controlled Phase 2 study in 63 patients (male and female) with recurrent herpes labialis. All of the 31 n-docosanol 10% cream-treated patients in the herpes labialis study, Study A, completed their treatment; 2 of those 31 patients reported a burning or stinging sensation after application of the cream. […] Study B was a randomized, double-blind, placebo-controlled trial in 44 female patients with recurrent herpes genitalis.
Sixty five patients (aged 18-60) took part in the Study A, 32 patients were initially randomized to receive 10% n-docosanol cream and 33 were initially randomized to receive placebo cream. Treatment was patient-initiated, and treatment initiation was defined as `early` if the treatment started at prodrome or erythema stage and as `late` if started at the papule stage or later. Two patients were excluded from the analysis. Of the 63 evaluable patients, 22 were entered into the cross-over phase of the study. In addition, 13 patients treated more than one episode with the same study medication. Therefore, a total of 98 herpes episodes--48 treated with 10% n-docosanol cream and 50 treated with placebo cream--were analyzed.

HSV = assay: Secondary plaque assay of infectious virions; type: cell-based; settings: secondary plaque assay cultures
Text: Finally, the replication of infectious virions as measured in secondary plaque assay cultures is markedly diminished by 99% or more in n-docosanol-treated cells.

HSV-specific receptors = assay: Binding of herpes virus to HSV-specific receptors on target cells; type: cell-based
Text: The collective implications of the results of the studies are that the compound appears to interfere with one or more of the common pathways of viral entry into the cell and migration to the nucleus of infected target cells.

CCCCCCCCCCCCCCCCCCCCCCO [n-docosanol]
antiviral properties (viruses): favorable
susceptibility to antiviral activity: Friend Leukemia Virus (Friend Virus [1]; Table 6, murine viruses): susceptible
activity against replication of Friend Virus in vitro (Friend Virus [1]; primary embryo fibroblast cultures): very potent activity
susceptibility to antiviral activity: LP-BM5 Virus (LP-BM5 Virus): susceptible
inhibition of acyclovir-resistant HSV-2 mutant [2]: very clearly susceptible
activity against poliovirus (poliovirus): no detectable activity
inhibition of murine retrovirus replication (murine retroviruses): does inhibit replication of murine retroviruses in vitro and in vivo
inhibition of development of leukemic foci (Friend virus [3]; FIG. 12 Panel A): very clear dose-related inhibitory affect
inhibition of development of viremia (Friend virus [3]; FIG. 12 Panel B): very clear dose-related inhibitory affect
susceptibility to antiviral activity: Respiratory Syncytial Virus [4]: susceptible
relative metabolic conversion, Vero relative to MDBK cells (Vero or MDBK cells): 3-4 times
total uptake, Vero relative to MDBK cells (Vero or MDBK cells): 3-4 times
amount of phosphatide metabolite, Vero relative to MDBK cells (Vero or MDBK cells; after 72 hours, FIG. 11): ~4 fold
relative amounts of phosphatidylcholine and phosphatidylethanolamine in the two cell lines (Vero or MDBK cells; of counts metabolized): not different
activity at the highest dose compared with PFA (HIV-1; FIG. 13): comparable to that observed with the very potent antiviral compound, phosphonoformic acid (PFA)
EC50 (HIV-1; Human immunodeficiency virus 1, PBMC, dose response of HIV-1, read-out: ED 50 (the source's name)): 6 to 9 mM
susceptibility to antiviral activity: HIV-1 (HIV-1; Table 6, human viruses): susceptible
inhibition of HIV-1 replication (HIV-1; n-docosanol/Pluronic, FIG. 13): dose-related inhibitory activity
antiviral HIV activity in Tetronic (HIV-1; suspended in Tetronic): even higher levels of antiviral HIV activity
activity against reovirus (reovirus): no detectable activity
time to healing, mean ([5]; all treatments): 5.7 days
time to healing, mean ([5]; early treatment): 3.4 days
reduction in mean overall healing time versus placebo ([5]; all 98 episodes, P=0.02): 1.6 days
reduction in mean healing time ([5]; all episodes, early treatment, P=0.05): 3.3 days
difference in healing time, late treatment ([5]; cross-over portion, P=0.03): significant difference in favor of n-docosanol
decrease of replication of infectious virions (HSV): ≥ 99%
effect on viral binding to receptors (HSV-specific receptors): does not interfere with binding of herpes virus; also recorded: no effect

Reference: US5534554A, “Sucrose ester-C20 to C28 alcohol formulations” (priority 1994, dated 1996)
